From patent EP4813986A1, “COMPOUND FOR REDUCING SERUM CONCENTRATION OF RBP4, AND USE” (Heronova Pharmaceuticals, LLC, priority 2023, dated 2025)
Where two headings read alike, the source gives them in different places.

How the values were obtained:
RBP4 = target: T1, RBP4 (Mus musculus, UniProt Q00724); assay: Plasma RBP4 content detection test (ELISA) after single oral dose; assay type: in vivo, ICR male mice; settings: 5 mg/kg oral, maximum reduction within 5 to 24 hours vs 0-hour value
T1 construct: from tissue; host or cells: plasma of ICR male mice
Description: Test Method: ICR male mice aged 7 to 8 weeks were adaptively fed for 3 to 7 days and randomly divided into groups (4 mice per group), and fasted for 12 hours before the test. Orbital venous blood samples were collected and plasma was separated before administration on the test day (0-hour value as the initial content). Then, test compounds at a dose of 1 mg/kg or 5 mg/kg were orally administered (vehicle: 5% DMSO + 10% cyclodextrin), and vehicle (5% DMSO + 10% cyclodextrin) was orally administered as a control group. Orbital venous blood samples were collected and plasma was separated at 5, 8, 10, 12, and 24 hours after compound administration. The RBP4 content in plasma samples was detected using Mouse RBP4 (Retinol Binding Protein 4, Plasma) ELISA Kit (immunoway, KE1574), the reduction rate was calculated, and the maximum reduction rate within 5 to 24 hours was selected. Reduction rate of RBP4 content in mouse plasma at different sampling time points = (Initial RBP4 content - RBP4 content at sampling point) / Initial RBP4 content. Table 2 Plasma RBP4 Reduction Levels of Different Compounds

in vitro = settings: microsomes, pH 7.4
Description: Phosphate buffer preparation: Weigh 7.098 g of disodium hydrogen phosphate, add 500 mL of pure water and dissolve by ultrasonication to obtain a disodium hydrogen phosphate solution. Weigh 3.400 g of potassium dihydrogen phosphate, add 250 mL of pure water and dissolve by ultrasonication to obtain a potassium dihydrogen phosphate solution. The disodium hydrogen phosphate solution and potassium dihydrogen phosphate solution were mixed and adjusted to pH 7.4+0.2.
10 mM NADPH preparation: Weigh an appropriate amount of NADPH (reduced coenzyme II), freshly prepare a 10 mM working solution with phosphate buffer, and the final concentration is 1 mM.
Incubation system preparation: Prepare the suspension into the incubation plate according to Table 5, and pre-incubate in a 37°C water bath for 10 min. Table 5 Incubation System Preparation
2 µL of positive control or test compound working solution was added to 358 µL of the incubation system, mixed uniformly by vortexing, and all samples were prepared in duplicate. 40 µL of 10 mM NADPH was added to the system, mixed uniformly by low-speed vortexing, and the reaction timing was started. […] Centrifuge at 4700 rpm, 4°C for 15 minutes to precipitate proteins. Transfer 100 µL of the supernatant to the sample plate, add 100 µL of pure water and mix well for UPLC-MS/MS analysis. Table 6 Liver Microsome Stability Results

[1] = Pharmacokinetic test, single oral dose, plasma LC-MS/MS; assay type: in vivo; settings: mouse, male ICR mice; for Cmax: read-out: peak concentration Cmax; for Tmax: read-out: peak time Tmax; for half-life: read-out: half-life T1/2 (converted)
Description: Test Method: Three ICR mice (male) were used for each compound, with five groups in total. Mice were treated with a single oral dose of 10 mg/kg or 5 mg/kg. For each mouse, blood samples were collected at 0.25, 0.5, 1, 2, 4, and 8 hours after administration. Whole blood samples were placed in test tubes containing EDTA-K2, inverted up and down several times, and then centrifuged at 6000 rpm, 4°C for 15 minutes to obtain plasma. The concentration of the compound in plasma samples was determined using the LC-MS/MS method. Table 4 Pharmacokinetic Results of Different Compounds

[2] = in vivo, single oral dose 10 mg/kg

Row | SMILES | Maximum Plasma RBP4 Reduction Rate (5 mg/kg dose) (RBP4) [%] | half-life at 1 µM (in vitro; human) [h] | microsomal CLint at 1 µM (in vitro; human) [µL/min/mg] | half-life at 1 µM (in vitro; mouse) [h] | microsomal CLint at 1 µM (in vitro; mouse) [µL/min/mg] | AUC(0-t) ([1]; single oral dose 10 mg/kg) [ng·h/mL] | Cmax ([1]; single oral dose 10 mg/kg) [ng/mL] | Tmax ([1]; single oral dose 10 mg/kg) [h] | AUC(0-t) ([1]; single oral dose 5 mg/kg) [ng·h/mL] | half-life ([1]; single oral dose 5 mg/kg) [h] | Cmax ([1]; single oral dose 5 mg/kg) [ng/mL] | Tmax ([1]; single oral dose 5 mg/kg) [h] | AUC(0-t) [1, 2] [ng·h/mL] | half-life [1, 2] [h] | Cmax [1, 2] [ng/mL] | Tmax [1, 2] [h] | half-life ([1]; single oral dose 10 mg/kg) [h]
1 | O=C(c1n[nH]c2c1CCNC2)N1CC=C(c2cccc(F)c2C(F)(F)F)CC1 [Compound 13] | 67 | > 3 | < 7.44 | 0.503 | 45.8 | 6040 | 1200 | 2 |  |  |  |  |  |  |  |  | 
2 | O=C(c1n[nH]c2c1CCNC2)N1CC=C(c2ccc(F)c(F)c2C(F)(F)F)CC1 [Compound 14] | 53 | > 3 | < 7.44 | 0.5 | 46.2 |  |  |  | 6000 | 7.54 | 364 | 5.3 |  |  |  |  | 
3 | NC(=O)CN1CCc2c(C(=O)N3CC=C(c4cccc(F)c4C(F)(F)F)CC3)n[nH]c2C1 [Compound 15] | 77 | > 3 | < 7.44 | 0.29 | 79.9 |  |  |  | 319 | 3.08 | 141 | 0.5 |  |  |  |  | 
4 | NC(=O)C(=O)N1CCc2c(C(=O)N3CC=C(c4ccc(F)c(F)c4C(F)(F)F)CC3)n[nH]c2C1 [Compound 16] |  | > 3 | < 7.44 | > 3 | < 7.44 |  |  |  | 490 | 1.69 | 235 | 0.5 |  |  |  |  | 
5 | O=C(c1n[nH]c2c1COCC2)N1CC=C(c2ccc(F)c(F)c2C(F)(F)F)CC1 [Compound 17] |  | > 3 | < 7.44 | 0.607 | 38.1 |  |  |  |  |  |  |  | 17800 | 3.35 | 2860 | 1.8 | 
6 | O=C1NCC[C@@H]1N1CCc2c(C(=O)N3CC=C(c4ccc(F)c(F)c4C(F)(F)F)CC3)n[nH]c2C1 [Compound 18] |  | > 3 | < 7.44 | 0.313 | 73.5 |  |  |  |  |  |  |  |  |  |  |  | 
7 | CC(C(N)=O)C(=O)N1CCc2c(C(=O)N3CC=C(c4ccc(F)c(F)c4C(F)(F)F)CC3)n[nH]c2C1 (stereo not shown) [Compound 19] |  | > 3 | < 7.44 | 1.24 | 18.6 | 41.9 | 22.3 | 0.833 |  |  |  |  |  |  |  |  | 1.98
8 | O=C1NCC[C@@H]1N1CCc2c(C(=O)N3CC=C(c4cccc(F)c4C(F)(F)F)CC3)n[nH]c2C1 [Compound 20] |  | 1.65 | 14 | 0.228 | 101 | 208 | 112 | 0.5 |  |  |  |  |  |  |  |  | 1.63
9 | NC(=O)C(=O)N1CCc2c(C(=O)N3CC=C(c4cccc(F)c4C(F)(F)F)CC3)n[nH]c2C1 [Compound 21] | 14 | > 3 | < 7.44 | 2.27 | 10.2 | 1200 | 519 | 0.5 |  |  |  |  |  |  |  |  | 2.54
10 | O=C(c1n[nH]c2c1COCC2)N1CC=C(c2cccc(F)c2C(F)(F)F)CC1 [Compound 23] |  | 0.905 | 25.5 | 0.178 | 130 |  |  |  |  |  |  |  |  |  |  |  | 
11 | CC(=O)N1CCc2c(C(=O)N3CCC(c4ccc(F)c(F)c4C(F)(F)F)CC3)n[nH]c2C1 [reference compound, 1-(3-(4-(3,4-difluoro-2-(trifluoromethyl)phenyl)piperidine-1-carbonyl)-4,5-dihydro-1H-pyrazolo[3,4-c]pyridin-6(7H)-yl)ethanone, reference compound] |  |  |  |  |  | 8830 | 3230 | 0.67 |  |  |  |  |  |  |  |  | 1.54
